Test results taken from patent US20110230571A1, “DIAGNOSTIC AND THERAPEUTIC PROTOCOLS” (ALFRED HEALTH, priority 2007, published 2011).
Where two headings read alike, the source gives them in different places.

Legend:
Type in all cases: cell-based
[1] = tested on: HIV-1 from patient plasma on TZMbl cells; experiment: Infection of TZMbl indicator cells with virus pelleted from patient plasma (Example 2); conditions: samples in DMEM-10 (n=9), plasma collected in the named anti-coagulant
Procedure: (§1) Blood is collected from HIV-1-infected individuals in sodium heparin, anti-coagulant citrate dextrose (ACD) a ethylenediamine tetraacetic acid (EDTA) and/or any other anti-coagulant blood tubes. The plasma isolated from each tube is stored at −80° C. until use.
To pellet the virus, plasma was diluted 1 in 2 (to a final volume of 800 μL) and layered over a 20% w/v sucrose cushion. The plasma was centrifuged at 17,000×g for 2 hours at 4° C. […]
Samples are also resuspended in DMEM-10 media and added to TZMbl cells. […] Upon integration of the host genome with the HIV-1 genome, these two genes are expressed and can be measured (NIH AIDS Research and Reference Reagent Program, Division of AIDS, NIAID, NIH (Derdeyn et al. Journal of Virology 74:8358-8367, 2000; Platt et al. Journal of Virology 72:2855-2864, 1998; Wei et al. Antimicrobial Agents and Chemotherapy 46:1896-1905, 2002). Following HIV infection of TZMbls, there is an increase in β-gal expression over the next 5 days. Infection is most simply measured by counting the number of cells that express β-gal (or are blue). The maximum number of blue cells that can be counted by this assay is 300 cells. […]
At day 5 post-infection, GHOST cells are washed in phosphate buffered saline (PBS), detached from the plate with Trypsin-EDTA, washed twice in FACS wash and fixed with FACS Fix. […] Uninfected cells are analyzed as a negative/background control.

[2] = tested on: HIV-1 from patient plasma on GHOSTX4R5 cells
Procedure: as §1
To pellet the virus, plasma was diluted 1 in 2 (to a final volume of 800 μL) and layered over a 20% w/v sucrose cushion. The plasma was centrifuged at 17,000×g for 2 hours at 4° C. The supernatant was aspirated and the viral pellet (viral isolate) was resuspended in 50 μL of GHOST media (Dulbecco's Modified Eagle's Medium (DMEM, Invitrogen, Auckland, NZ), 10% v/v Cosmic calf serum (Quantum Scientific, Milton, Qld), 1× Penicillin/Streptomycin/Glutamine (Invitrogen), 1 μg/mL Puromycin (Sigma, St. Louis, Mo.), 100 μg/mL Hygromycin (Sigma), 500 μg/mL G418 (AG Scientific, San Diego, Calif.)) or DMEM-10 (DMEM, 10% v/v Cosmic calf serum) in the presence and absence of Heparin (20 U/mL, David Bull Laboratories, Melbourne, Australia). All samples contain polybrene at 2 μg/mL. Samples resuspended in DMEM-10 contain 40 μg/mL DEAE-Dextran.
Samples were resuspended in GHOST media and added to GHOSTX4R5 cells which have been seeded 24 hours previously in a 96-well flat-bottomed plate at 10,000 cells/well. GHOSTX4R5 cells are an adherent cell line derived from human osteosarcoma (HOS cells). They are stably transfected with the HIV-2 LTR driving hGFP construct and express green fluorescent protein (GFP) when productively infected with HIV or SIV. The cells also stably express surface CD4, CCR5 and CXCR4 (Morner et al. Journal of Virology 73:2342-2349, 1999) (NIH AIDS Research and Reference Reagent Program, Division of AIDS, NIAID, NIH).
Both cell lines are infected at the same time with HIV-1 strains 89.6 (uses both CXCR4 and CCR5), NL4-3 (uses CXCR4 only) and AD8 (uses CCR5 only) as positive controls for infection. The cells are then subjected to spinoculation—centrifugation at 1200×g for 2 hours at room temperature. The volume of media is increased to 150 μL with media and the cells are incubated for 5 days. Samples are observed for the presence of clot formation at all stages.
At day 5 post-infection, GHOST cells are washed in phosphate buffered saline (PBS), detached from the plate with Trypsin-EDTA, washed twice in FACS wash and fixed with FACS Fix. The cells are then analyzed by flow cytometry for expression of GFP as an indication of HIV-1 infection. TZMbl cells are washed in PBS and fixed for 5 mins in fixative. Cells are washed once and 50 μL of β-gal substrate is added to each well. The cells are incubated at 37° C. for 2 hours. […] Under a light microscope, the number of blue-stained (HIV-1 infected) foci are counted. Uninfected cells are analyzed as a negative/background control.

[3] = tested on: HIV-1 from patient plasma on GHOSTX4R5 cells; conditions: for number of patients whose virus infected GHOSTX4R5 cells: of 5 patients
Procedure: Matched patient blood samples were collected from HIV-1 positive, viraemic individuals, in sodium heparin, ACD and EDTA blood tubes.
To prepare a viral isolate pellet, plasma was diluted 1 in 2 (to a final volume of 800 μL) and layered over a 20% v/v sucrose cushion. The plasma was centrifuged at 17,000×g for 2 hours at 4° C. The supernatant was aspirated and the viral pellet was resuspended in 50 μL media as follows: • Sodium heparin samples: • Resuspended in GHOST media. • ACD samples: • One sample resuspended in GHOST media. • One sample resuspended in GHOST media plus Heparin at 20 U/mL. • One sample resuspended in GHOST media plus EDTA* • EDTA samples: • One sample resuspended in GHOST media. • One sample resuspended in GHOST media plus Heparin at 20 U/mL. • One sample resuspended in GHOST media plus ACD*
*ACD and EDTA were obtained by filling collection tubes with 9 mL of GHOST media. This media was then used undiluted to resuspend the pellet.
All samples contained Polybrene at 2 μg/mL.
Samples were added to GHOSTX4R5 cells which had been seeded the night before in a 96-well flat-bottomed TC plate at 10,000 cells/well. The cells were subjected to Spinoculation—centrifugation at 1200×g for 2 hours at room temperature. The volume of media was increased to 150 μL with GHOSTX4R5 media and the cells were incubated for 5 days.
The cells were washed in PD, detached from the plate with Trypsin-EDTA, washed 2× in FACS wash and fixed with FACS Fix. The cells were then analyzed by flow cytometry for GFP expression as an indication of HIV-1 infection. Cells infected with HIV-1 lab strains 89.6, NL4-3 and AD8 were run concurrently as positive controls for infection. Uninfected cells were analyzed as a negative/background control.

[4] = GHOSTX4R5 cells, samples in GHOST media (n=10), plasma collected in the named anti-coagulant
[5] = Day 5 post-infection, named anti-coagulant combination

Molecule | patient samples with viral infection observed [1] [%] | patient samples with viral infection observed [2, 4] [%] | mean number of infected cells ([3]; 5 patients, ACD or EDTA added to samples) | number of patients whose virus infected GHOSTX4R5 cells [3, 5] | patient samples with viral infection observed ([2]; GHOSTX4R5 cells (n=10), plasma collected in ACD, heparin added to the resuspended plasma pellet) [%] | patient samples with viral infection observed ([2]; GHOSTX4R5 cells (n=10), samples collected in EDTA to which heparin had been added) [%] | mean number of GFP positive cells per 100,000 cells ([3]; 5 patients, blood collected in sodium heparin, compared with other anti-coagulant combinations) | mean number of infected cells ([3]; 5 patients, heparin added to samples collected in ACD or EDTA, versus ACD or EDTA alone) | number of patients whose virus infected GHOSTX4R5 cells ([3]; viral isolates derived from ACD plasma to which heparin had been added)
O=C(O)CN(CCN(CC(=O)O)CC(=O)O)CC(=O)O [EDTA, ethylenediamine tetraacetic acid] | 22 | 30 | very low | 4 |  |  |  |  | 
heparin | 33 | 40 |  | 3 | 50 | 40 | highest | slightly improved | 5
